The target in data set [1] is norovirus 3CL protease (NV 3CLpro) (Norovirus, UniProt Q83883). As to the kind of experiment: FRET protease assay (3CL protease), enzyme inhibition. The data set is classed as biochemical. The protocol: FRET protease assays. The FRET protease assay (3CL protease) was performed by preparing stock solutions of the substrate (Edans-DFHLQ/GP-Dabcyl, SEQ ID NO:1) and inhibitor in DMSO and diluting into assay buffer which was comprised of 20 mM HEPES buffer, pH 8, containing NaCl (200 mM), 0.4 mM EDTA, glycerol (60%), and 6 mM dithiothreitol (DTT). The protease was mixed with serial dilutions of each compound up to 100 μM or with DMSO in 25 μL of assay buffer and incubated at 37° C. for 30 min, followed by the addition of 25 μL of assay buffer containing substrate. Fluorescence readings were obtained using an excitation wavelength of 360 nm and an emission wavelength of 460 nm on a fluorescence microplate reader (FLx800; Biotec, Winoosk, Vt.) 1 h following the addition of substrate. Relative fluorescence units (RFU) were determined by subtracting background values (substrate-containing well without protease) from the raw fluorescence values. The dose-dependent FRET inhibition curves were fitted with a variable slope by using GraphPad Prism software (GraphPad, La Jolla, Calif.) in order to determine the IC50 values of the inhibitors.
norovirus 3CL protease (NV 3CLpro), sequence (Q83883 1101-1281): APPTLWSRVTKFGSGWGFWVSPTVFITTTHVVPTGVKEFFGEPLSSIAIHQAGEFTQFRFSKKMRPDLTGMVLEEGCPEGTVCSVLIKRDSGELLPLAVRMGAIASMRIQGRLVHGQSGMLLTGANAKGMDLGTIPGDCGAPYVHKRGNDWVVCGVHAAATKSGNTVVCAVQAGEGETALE

Data set [2] relates to NV in replicon harboring cells (HG23 cells). As to the kind of experiment: Cell-based assay: virus replication in NV replicon harboring cells (HG23 cells), qRT-PCR. As to conditions: HG23 cells, 48 h. Also noted: species or system norovirus (NV). The protocol: The effects of each inhibitor on virus replication were examined against NV in the NV replicon harboring cells (HG23 cells). Briefly, confluent and semi-confluent HG23 cells were incubated with medium containing DMSO (<0.1%) or each compound (up to 200 uM) for 48 h. After the incubation, total RNA was extracted and viral genome was quantitated with real-time quantitative RT-PCR (qRT-PCR). The EC50 values were determined by GraphPadPrism software.

For data set [3] the following is noted: IV, SC and PO routes, rats.
The mark [4] stands for this setting: Table 1, ester prodrugs, average of at least two determinations, read-out: IC50 (50% inhibitory concentration in the enzyme assay).
Setting [5] is: Table 1, ester prodrugs, read-out: EC50 (50% effective concentration in cell culture).

Where two headings read alike, the source gives them in different places.

Five compounds from patent publication US11033600B2, “Protease transition state inhibitor prodrugs” (priority 2016, dated 2021) can be followed below.

In the case of `CCCCCC(=O)OC([C@H](C[C@@H]1CCNC1=O)NC(=O)[C@H](CC1CCCCC1)NC(=O)OCc1cccc(Cl)c1)S(=O)(=O)O` (stereo partly drawn) [Compound 11, (5S,8S)-1-(3-Chlorophenyl)-5-(cyclohexylmethyl)-3,6,11-trioxo-8-(((S)-2-oxopyrrolidin-3-yl)methyl)-2,10-dioxa-4,7-diazahexadecane-9-sulfonate], the IC50 in data set [1] (setting [4]) was determined as 100 nM. Also, the EC50 in data set [2] (setting [5]) was determined as 15 nM. In data set [3], the “Conversion of prodrug to the aldehyde form (compound 25) in rat plasma” value is recorded as “most of compound 11 was converted to the aldehyde form”.

In the case of `O=C(N[C@@H](CC1CCCCC1)C(=O)N[C@@H](C[C@@H]1CCNC1=O)C(OC(=O)C1CCCCC1)S(=O)(=O)O)OCc1cccc(Cl)c1` (stereo partly drawn) [Compound 14, (5 S,8S)-1-(3-Chlorophenyl)-11-cyclohexyl-5-(cyclohexylmethyl)-3,6,11-trioxo-8-(((S)-2-oxopyrrolidin-3-yl)methyl)-2,10-dioxa-4,7-diazaundecane-9-sulfonate], the IC50 in data set [1] (setting [4]) amounted to 400 nM. Moreover, in data set [2] (setting [5]), the EC50 came to 20 nM.

Regarding `CCCCCC(=O)OC([C@H](C[C@@H]1CCNC1=O)NC(=O)[C@H](CC(C)C)NC(=O)OCc1ccccc1)S(=O)(=O)O` (stereo partly drawn) [Compound 5, (5 S, 8S)-5-Isobutyl-3,6,11-trioxo-8-(((S)-2-oxopyrrolidin-3-yl)methyl)-1-phenyl-2,10-dioxa-4,7-diazahexadecane-9-sulfonate], in data set [1] (setting [4]), the IC50 stood at 2800 nM. Moreover, in data set [2] (setting [5]), the EC50 worked out at 300 nM.

As to `CCC(=O)OC([C@H](CC1CCNC1=O)NC(=O)[C@H](CC1CCCCC1)NC(=O)OCc1cccc(Cl)c1)S(=O)(=O)O` (some centres unmarked) [Compound 10, (5 S, 8S)-1-(3-chlorophenyl)-5-(cyclohexylmethyl)-3,6,11-trioxo-8-((2-oxopyrrolidin-3-yl)methyl)-2,10-dioxa-4,7-diazatridecane-9-sulfonate], in data set [1] (setting [4]), the IC50 amounted to 100 nM. Further, the EC50 in data set [2] (setting [5]) worked out at 25 nM.

On to `COC(=O)C(NC(=O)OC([C@H](C[C@@H]1CCNC1=O)NC(=O)[C@H](CC1CCCCC1)NC(=O)OCc1cccc(Cl)c1)S(=O)(=O)O)C(C)C` (stereo partly drawn) [Compound 22, (5 S,8S)-1-(3-Chlorophenyl)-5-(cyclohexylmethyl)-13-isopropyl-3,6,11,14-tetraoxo-8-(((S)-2-oxopyrrolidin-3-yl)methyl)-2,10,15-trioxa-4,7,12-triazahexadecane-9-sulfonate], for which, in data set [1] (Table 2, carbamate prodrugs, read-out: IC50), the IC50 was determined as 500 nM. The EC50 in data set [2] (Table 2, carbamate prodrugs, read-out: EC50) stood at 40 nM.
